Read-outs that look alike come from different tables or passages of the source.
How the values were obtained:
human neutrophils = assay: Human neutrophil chemotaxis induced by fMLP (modified Boyden chamber); assay type: cell-based; conditions: Neutrophil, 1 h, 1 μM fMLP challenge, one hour, read-out: Chemotaxis Avg. IC50
Text: This assay is an in vitro assay of neutrophil chemotaxis that can be used to evaluate the ability of Rho Kinase inhibitor compounds of Formula I or II to inhibit the migration of human neutrophils, an inflammatory cell that has been implicated in the pathophysiology of allergic conjunctivitis.
Peripheral blood from healthy human volunteers was collected and the neutrophils were isolated by Ficoll-paque density centrifugation followed by dextran sedimentation and hypotonic lysis of the red blood cells. Neutrophil chemotaxis was assessed using a modified Boyden Chamber (Neuroprobe, 96-well) with a 3 μm pore polycarbonate membrane. The ability of the tested compounds to block chemotaxis induced by a 1 μM fMLP challenge during a one hour incubation at 37° C. with 5% CO2 was assessed in a dose response manner.

Akt3 human enzyme = molecular target: T1, Akt3 human enzyme (Homo sapiens, UniProt Q9Y243); assay: Akt3 inhibition assay (IMAP FP); assay type: biochemical;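 also: kinase reaction run 60 min at room temperature after 30 µM ATP start, phosphorylated substrate captured on IMAP beads and read as fluorescence polarization (mP)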
T1 construct: purchased Upstate Chemicon 14-502

[1] = Rat oral pharmacokinetics (plasma); assay type: in vivo; conditions: 20-30 μmol/kg; for Vz_F / AUC(0-t): mean n = 3; for AUC(0-t) / Cmax / Tmax / half-life: male, CD Sprague Dawley; for Cmax: mean n = 3, read-out: Cmax; for Tmax: mean n = 3, read-out: Tmax; for half-life: mean n = 3, read-out: t½ (converted)
Experimental: Plasma (EDTA K2 anticoagulant) was collected from male, cannulated, CD Sprague Dawley rats to determine the pharmacokinetics of formulations containing compound inhibitors of Rho kinase. Each animal was dosed orally with a 4 ml/kg solution or suspension of each test compound in 10 mM acetate buffered saline, pH 4.5 at a final concentration range of 20-30 μmol/kg. Blood was collected at 0.25, 0.5, 1, 2, 4, 6, 8, and 24 hours. Plasma samples were assayed for the concentration of the test compound using an on-line, solid phase extraction LC/MS/MS analysis system.
Samples were analyzed on a QSTAR Elite, hybrid quadrupole time-of-flight mass spectrometer (Applied Biosystems, Framingham, Mass.) coupled with a Symbiosis Pharma integrated, on-line SPE-HPLC system (Spark Holland Inc., Plainsboro, N.J.). Analyst QS 2.0 software was used for instrument control, data acquisition and processing. […] Mobile Phase A consisted of 0.1% ammonium hydroxide in water and Mobile Phase B consisted of 0.1% formic acid in acetonitrile. Pharmacokinetic analyses were performed using WinNonlin software version 5.2 (Pharsight Corporation, Mountain View, Calif.).
As determined from the plasma concentration versus time curves, the time to peak and peak exposure are represented by the values Tmax and Cmax, respectively. The AUC values (nM*hr) shown were calculated as the areas under the plasma concentration versus time curves from time zero through the time of the last observable value and represent the total exposure of the compound over the course of the study. Half-life values or the amount of time required for the plasma levels of the compound to decline to half the initial value are represented as t½.

p70S6K human enzyme = molecular target: T2, p70S6K human enzyme (Homo sapiens, UniProt P23443, T412E); assay: p70S6K inhibition assay (IMAP FP); assay type: biochemical;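 also: kinase reaction run at room temperature, phosphorylated substrate captured on IMAP beads and read as fluorescence polarization in mP, IC50 then converted to Ki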
T2 construct: purchased Upstate Chemicon 14-486

ROCK1 = molecular target: T3, ROCK1 (Homo sapiens, UniProt Q13464); assay: Rho kinase inhibition assay (IMAP fluorescence polarization), ROCK1; assay type: biochemical;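 also: kinase reaction run 60 min at room temperature, then phosphorylated substrate captured on IMAP beads for 30 min, with fluorescence polarization read in mP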
T3 construct: purchased Upstate/Chemicon 14-601
Experimental: (§1) Following the pre-incubation, 10 μM ATP was added to initiate the reaction. After 60 minutes at room temperature, Molecular Devices IMAP™ binding solution was added to bind phosphorylated substrate. After 30 minutes of incubation in the presence of the IMAP™ beads, the fluorescence polarization was read and the ratio was reported as mP. IC50 values for compounds and EC50 values for ATP were calculated using the Prism software from Graphpad.

ROCK2 = molecular target: T4, ROCK2 (Homo sapiens, UniProt O75116); assay: Rho kinase inhibition assay (IMAP fluorescence polarization), ROCK2; assay type: biochemical;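 also: kinase reaction started with 10 µM ATP and run 60 min at room temperature, then phosphorylated substrate captured on IMAP beads for 30 min and fluorescence polarization read in mP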
T4 construct: purchased Upstate/Chemicon 14-451
Experimental: as §1

[2] = system: A-10 rat thoracic aorta cells; assay: PDGF-stimulated smooth muscle cell proliferation assay (BrdU incorporation); assay type: cell-based; conditions: A-10 cells, 10 ng/mL PDGF, BrdU incorporation, percent of total challenge-stimulated proliferation; for Percent of PDGF Induced Proliferation at 1 μM Avg: 1 μM test compound; for Percent of PDGF Induced Proliferation at 10 μM Avg: 10 μM test compound;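 as to all read-outs here: cells kept in serum-free medium, BrdU allowed to incorporate for 24 h, then incorporated label detected fluorometrically with an anti-BrdU antibody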
[3] = Compound plasma concentrations in unsensitized mice at 15 min post administration; assay type: in vivo; conditions: mouse, 15 μmol/kg; mean compound plasma concentration in mice at 15 minutes post oral administration; read-out: Mouse Oral PK
Experimental: Additionally, compound concentrations were determined in the plasma and lungs of male, ovalbumin-sensitized, Balb/c mice from a murine model of asthma. Test compounds were formulated in water or 1% polysorbate 80 and dosed at 15 μmol/kg for intraperitoneal (IP) or oral (PO) administration or formulated for intratracheal (IT) administration and dosed at 5 μmol/kg, which directly targets the lungs. Following completion of the in vivo study, mice were euthanized and blood and plasma collected approximately 2.5-3 hours post administration of test compound for bronchodialator (BD) studies and 24 hours post administration for anti-inflamatory (AI) studies. Lungs were homogenized in Matrix A lysing tubes using a FastPrep 24 tissue and cell homogenizer (MP Biomedicals, Solon, Ohio). Both plasma samples and lung extracts were assayed for compound concentrations using an on-line, solid phase extraction LC/MS/MS system.

[4] = 30 μM ATP, Ki=IC50/(1+([ATP Challenge]/EC50 ATP)), read-out: Akt3 Ki, Avg
[5] = 30 μM ATP, Ki=IC50/(1+([ATP Challenge]/EC50 ATP)), read-out: p70S6K Ki, Avg
[6] = 10 μM ATP, read-out: ROCK2 Ki, Avg
[7] = average Ki, read-out: p70S6K Ki

T1 sequence (Q9Y243 whole entry): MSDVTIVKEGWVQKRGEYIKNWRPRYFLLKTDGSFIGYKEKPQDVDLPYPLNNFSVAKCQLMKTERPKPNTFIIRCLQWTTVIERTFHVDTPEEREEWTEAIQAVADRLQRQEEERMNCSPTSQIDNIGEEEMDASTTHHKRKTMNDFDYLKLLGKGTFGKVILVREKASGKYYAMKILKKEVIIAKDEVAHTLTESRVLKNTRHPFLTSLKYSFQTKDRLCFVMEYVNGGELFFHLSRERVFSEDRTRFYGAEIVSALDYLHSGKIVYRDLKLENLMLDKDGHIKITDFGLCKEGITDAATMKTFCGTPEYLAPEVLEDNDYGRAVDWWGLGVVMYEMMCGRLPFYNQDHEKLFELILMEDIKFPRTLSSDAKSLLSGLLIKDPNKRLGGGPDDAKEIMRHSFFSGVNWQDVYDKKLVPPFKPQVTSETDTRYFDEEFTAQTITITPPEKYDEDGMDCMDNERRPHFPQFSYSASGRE
T3 sequence (Q13464 17-535 limits assumed): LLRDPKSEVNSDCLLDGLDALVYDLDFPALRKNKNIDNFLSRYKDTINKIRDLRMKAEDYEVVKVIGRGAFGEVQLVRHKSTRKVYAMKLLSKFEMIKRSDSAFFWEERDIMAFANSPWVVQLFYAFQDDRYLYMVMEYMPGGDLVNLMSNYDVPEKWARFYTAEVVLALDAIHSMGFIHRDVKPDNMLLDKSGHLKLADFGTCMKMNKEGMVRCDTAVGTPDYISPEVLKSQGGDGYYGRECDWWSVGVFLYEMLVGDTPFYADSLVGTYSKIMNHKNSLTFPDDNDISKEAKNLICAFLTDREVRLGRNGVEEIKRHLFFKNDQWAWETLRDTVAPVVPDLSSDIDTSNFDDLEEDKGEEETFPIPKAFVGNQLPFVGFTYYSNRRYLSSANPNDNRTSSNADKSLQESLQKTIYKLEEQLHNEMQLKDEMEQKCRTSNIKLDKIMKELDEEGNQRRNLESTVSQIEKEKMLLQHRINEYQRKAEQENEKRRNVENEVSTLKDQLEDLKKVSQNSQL
T2 sequence (P23443 1-421 T412E limits assumed): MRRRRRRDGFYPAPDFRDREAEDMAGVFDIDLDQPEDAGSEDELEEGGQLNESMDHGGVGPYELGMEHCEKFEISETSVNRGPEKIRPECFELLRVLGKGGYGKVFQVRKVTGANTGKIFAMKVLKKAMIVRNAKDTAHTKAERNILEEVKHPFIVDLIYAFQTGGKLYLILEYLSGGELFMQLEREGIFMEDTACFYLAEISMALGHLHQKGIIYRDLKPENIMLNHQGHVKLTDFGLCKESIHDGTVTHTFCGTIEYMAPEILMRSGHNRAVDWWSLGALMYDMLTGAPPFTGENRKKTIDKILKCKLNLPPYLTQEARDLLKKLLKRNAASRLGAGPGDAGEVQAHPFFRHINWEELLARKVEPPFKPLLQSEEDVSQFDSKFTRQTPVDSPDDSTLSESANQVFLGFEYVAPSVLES
T4 sequence (O75116 11-552 limits assumed): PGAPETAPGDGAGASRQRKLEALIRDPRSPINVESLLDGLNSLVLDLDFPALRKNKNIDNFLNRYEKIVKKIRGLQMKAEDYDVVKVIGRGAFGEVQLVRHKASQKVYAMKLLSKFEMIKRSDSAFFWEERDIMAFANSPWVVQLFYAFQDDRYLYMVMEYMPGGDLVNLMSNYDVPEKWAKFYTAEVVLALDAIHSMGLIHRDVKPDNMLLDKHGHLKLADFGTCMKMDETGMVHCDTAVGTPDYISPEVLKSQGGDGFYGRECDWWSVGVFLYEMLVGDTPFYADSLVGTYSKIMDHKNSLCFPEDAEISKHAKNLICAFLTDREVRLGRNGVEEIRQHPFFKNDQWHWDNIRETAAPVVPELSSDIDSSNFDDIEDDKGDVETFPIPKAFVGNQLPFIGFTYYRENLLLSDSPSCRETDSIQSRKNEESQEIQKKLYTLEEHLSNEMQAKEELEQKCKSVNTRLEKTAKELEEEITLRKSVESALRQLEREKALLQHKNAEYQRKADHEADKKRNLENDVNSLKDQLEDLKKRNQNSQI

| SMILES | IC50 (human neutrophils) [nM] | Ki (Akt3 human enzyme; [4]) [nM] | Vz_F [1] [L/kg] | AUC(0-t) [1] [µM·h] | Cmax [1] [nM] | Tmax [1] [h] | half-life [1] [h] | Ki (p70S6K human enzyme; [5]) [nM] | Ki (ROCK1; Avg, 10 μM ATP) [nM] | Ki (ROCK2; [6]) [nM] | Percent of PDGF Induced Proliferation at 1 μM Avg [2] [%] | Percent of PDGF Induced Proliferation at 10 μM Avg [2] [%] | concentration at 15 min [3] [nM] | Ki (Akt3 human enzyme; average Ki, read-out: Akt3 Ki) [nM] | Ki (p70S6K human enzyme; [7]) [nM] | Ki (ROCK1; average Ki) [nM] | Ki (ROCK2; average Ki, read-out: ROCK2 Ki) [nM] |
| --- | --- | --- | --- | --- | --- | --- | --- | --- | --- | --- | --- | --- | --- | --- | --- | --- | --- |
| O=S(=O)(c1cccc2cnccc12)N1CCCNCC1 [fasudil, reference compound] | 23800 | – | – | – | – | – | – | – | – | – | – | – | – | – | – | – | – |
| NC(=O)Cn1ccc2ccc(CN3CCC[C@H](Nc4ccc5[nH]ncc5c4)C3)cc21 [Compound 1.107, (S)-2-(6-((3-(1H-indazol-5-ylamino)piperidin-1-yl)methyl)-1H-indol-1-yl)acetamide] | – | 16300 | 36.3 | 1.59 | 544 | 1.67 | 1.28 | 3360 | 234 | 14 | – | – | – | – | – | – | – |
| Cc1ccc(S(=O)(=O)Nc2cc(CN3CCC[C@H](Nc4ccc5[nH]ncc5c4)C3)ccc2C)cc1 [Compound 1.239, (S)-N-(5-((3-(1H-indazol-5-ylamino)piperidin-1-yl)methyl)-2-methylphenyl)-4-methylbenzenesulfonamide] | – | 17700 | – | – | – | – | – | 10000 | 283 | 6.3 | 41.7 | 37.8 | 259 | 17700 | 10000 | 283 | 6.3 |
| Cc1ccc(CN2CCC[C@H](Nc3cccc4cnccc34)C2)cc1 [Compound 2.045, (S)-N-(1-(4-methylbenzyl)piperidin-3-yl)isoquinolin-5-amine] | – | – | 226 | 0.456 | 223 | 0.67 | 1.59 | – | 90.6 | 88 | – | – | – | – | – | – | – |
| OCCn1ccc2ccc(CN3CCC[C@@H](Nc4ccc5[nH]ncc5c4)C3)cc21 [Compound 1.108, (R)-2-(6-((3-(1H-indazol-5-ylamino)piperidin-1-yl)methyl)-1H-indol-1-yl)ethanol] | – | 205 | 116 | 0.415 | 209 | 0.83 | 1.36 | 511 | 25.6 | 6.5 | 83.1 | 43.7 | 395 | 205 | 511 | 25.6 | 6.5 |
| NC(=O)Cn1ccc2cc(CN3CCC[C@H](Nc4ccc5[nH]ncc5c4)C3)ccc21 [Compound 1.165, (S)-2-(5-((3-(1H-indazol-5-ylamino)piperidin-1-yl)methyl)-1H-indol-1-yl)acetamide] | – | 4140 | – | – | – | – | – | 1630 | 50.7 | 3.4 | 74.8 | 57.9 | 94 | 4140 | 1630 | 50.7 | 3.4 |
| c1ccc(CN2CC[C@@H](Nc3cccc4cnccc34)C2)cc1 [Compound 2.046, (R)-N-(1-benzylpyrrolidin-3-yl)isoquinolin-5-amine] | – | 1980 | – | – | – | – | – | 759 | 16.7 | 5.6 | 57.4 | 32.1 | 488 | 1980 | 759 | 16.7 | 5.6 |
| CCCS(=O)(=O)Nc1cc(CN2CCC[C@H](Nc3ccc4[nH]ncc4c3)C2)ccc1C [Compound 1.238, (S)-N-(5-((3-(1H-indazol-5-ylamino)piperidin-1-yl)methyl)-2-methylphenyl)propane-1-sulfonamide] | – | 4170 | – | – | – | – | – | 2610 | 61.2 | 1.5 | 40.7 | 48.6 | 48 | 4170 | 2610 | 61.2 | 1.5 |
| CS(=O)(=O)Nc1cc(CN2CCC[C@H](Nc3ccc4[nH]ncc4c3)C2)ccc1Cl [Compound 1.213, (S)-N-(5-((3-(1H-indazol-5-ylamino)piperidin-1-yl)methyl)-2-chlorophenyl)methanesulfonamide] | – | 3210 | – | – | – | – | – | 2100 | 106 | 3 | 70.1 | 52.3 | 396 | 3210 | 2100 | 106 | 3 |
| NS(=O)(=O)c1cccc(CN2CCC[C@H](Nc3ccc4[nH]ncc4c3)C2)c1 [Compound 1.215, (S)-3-((3-(1H-indazol-5-ylamino)piperidin-1-yl)methyl)benzenesulfonamide] | – | 14800 | – | – | – | – | – | 1290 | 103 | 3.5 | 70.8 | 54.0 | 2650 | 4750 | 1290 | 103 | 3.5 |
| c1cc2ccc(CN3CCC[C@H](Nc4ccc5[nH]ncc5c4)C3)cc2[nH]1 [Compound 1.148, (S)-N-(1-((1H-indol-6-yl)methyl)piperidin-3-yl)-1H-indazol-5-amine] | – | 1130 | – | – | – | – | – | 436 | 24.3 | 3.6 | 56.9 | 63.5 | 767 | 1130 | 436 | 24.3 | 3.6 |
| c1cc2cc(CN3CCC[C@H](Nc4ccc5[nH]ncc5c4)C3)ccc2s1 [Compound 1.175, (S)-N-(1-(benzo[b]thiophen-5-ylmethyl)piperidin-3-yl)-1H-indazol-5-amine] | – | 2820 | – | – | – | – | – | 853 | 65.9 | 7.6 | 58.2 | 49.0 | 1130 | 2820 | 853 | 65.9 | 7.6 |
| CCS(=O)(=O)Nc1cc(CN2CCC[C@H](Nc3ccc4[nH]ncc4c3)C2)ccc1C [Compound 1.253, (S)-N-(5-((3-(1H-indazol-5-ylamino)piperidin-1-yl)methyl)-2-methylphenyl)ethanesulfonamide] | – | 2600 | – | – | – | – | – | 2510 | 59.9 | 1.7 | 44.8 | 47.9 | 240 | 2600 | 2510 | 59.9 | 1.7 |

Source: patent US20090325959A1 (priority 2008, published 2009)
